The results in this text go back to patent US5817669A, “Compounds, processes for the preparation thereof and anti-tumor agents” (Dainippon Pharmaceutical Co., Ltd., priority 1994, dated 1998).

In experiment [1] the test system is MKN45 human stomach cancer. Nature of the experiment: In vitro anti-tumor activity against MKN45 human stomach cancer (MTT). The settings on record: MKN-45, MKN45, 72 h, MTT, read-out: IC50. In kind it is cell-based. The method, then:
(§1) A culture medium containing 500 to 2,000 human cancer cells was put in an amount of 0.1 ml in each well of 96-well plate, and the cells were cultured for 20 hours under a condition of 37° C. and 5% carbon dioxide gas in air. After the culturing, a solution of test compounds of predetermined concentration was added, and then, the cells were cultured for further 72 hours. After the culturing, an MTT (5 mg/ml) solution was added in an amount of 0.01 ml in the respective wells, and the cells were cultured for further 4 hours. The supernatants of the culture medium were removed by suction, and then, 0.1 ml of dimethyl sulfoxide was put in respective well to dissolve the formed formazan, and, moreover, 0.1 ml of dimethyl sulfoxide was added.

Experiment [2] relates to C33A human cervix cancer. The experiment in a line: In vitro anti-tumor activity against C-33A human cervix cancer (MTT). In kind it is cell-based. The settings on record: C-33A, 72 h, MTT, read-out: IC50. The method, then:
as §1

For experiment [3], the system named is HMV2 human melanoma. The experiment in a line: In vitro anti-tumor activity against HMV-2 human melanoma (MTT). In kind it is cell-based. The settings on record: HMV-2, 72 h, MTT, read-out: IC50. The method, then:
as §1

For experiment [4], the system named is KB human nasopharynx cancer. The experiment in a line: In vitro anti-tumor activity against KB human nasopharynx cancer (MTT). In kind it is cell-based. The conditions noted are these: KB, 72 h, MTT, read-out: IC50. The method, then: as §1
Experiment [5] has as its system AZ521 human stomach cancer. Nature of the experiment: In vitro anti-tumor activity against AZ-521 human stomach cancer (MTT). In kind it is cell-based. The conditions noted are these: AZ-521, 72 h, MTT, read-out: IC50. The method, then:
as §1

Experiment [6] relates to WiDr human colorectal cancer. The experiment in a line: In vitro anti-tumor activity against WiDr human colorectal cancer (MTT). In kind it is cell-based. The conditions noted are these: 72 h, MTT, read-out: IC50. The method, then: as §1
Experiment [7] relates to murine P388 lymphocytic leukemia cells. Nature of the experiment: Increases in life span of mice implanted with murine P388 lymphocytic leukemia cells. In kind it is in vivo, SLC: BDF1 mice. The conditions noted are these: ip; for ILS at 3.13 mg/kg / ILS at 12.5 mg/kg / ILS at 50 mg/kg / ILS at 1.56 mg/kg / ILS at 6.25 mg/kg / ILS at 25 mg/kg / ILS at 0.78 mg/kg: Mus musculus, P388, ip, 720 h. The method, then:
1×10^6 murine P388 lymphocytic leukemia cells were intraperitoneally implanted in each of SLC: BDF1 mice (8 to 10 weeks old, female, 7 animals per one group). A test compound (drug) was either dissolved in 0.1 N--NaOH or suspended in 0.4% carboxymethylcellulose solution, and the resultant solution or suspension was diluted with distilled water or 0.4% carboxymethylcellulose solution so as to give predetermined concentrations for administration. The obtained solution was intraperitoneally (ip) administered twice, namely on the day following the implantation (1st day) and the 5th day, each 0.2 ml. The life and death of the mice were observed over a period of 30 days, and the median survival time (hereinafter referred to as MST) was determined for each group, and, thus, the increase in life span (ILS; %) was calculated according to the following equation:
ILS (%)=[{(MST of the test group)/(MST of the control group)}-1]×100
Drug effect was judged in the following manner, according to the criterion of U.S. National Cancer Institute (NCI):
ILS=75% or higher: ++ (remarkably effective);
20 to 74%: + (effective);
19% or lower: - (ineffective)

Experiment [8] deals with colon 26 murine tumor cells. Nature of the experiment: Tumor growth inhibition effect on colon 26 murine tumor cells implanted mice. It is filed as in vivo, SLC: CDF1 mice. The settings on record: Mus musculus, Colon 26, 504 h, ip, days 1-9, day 21 or 22, read-out: Tumor growth inhibition rate IR (%); for inhibition in vivo at 1.56 mg/kg: 1.56 mg/kg once a day. The method, then: A 2% brei of colon 26 murine tumor cells was intracutaneously implanted each 0.1 ml in the abdominal part of SLC: CDF1 female mice (7 to 9 weeks old, 7 animals per one group). […] The obtained solutions were intraperitoneally (ip) administered each 0.2 ml once a day, from the day (1st day) following the implantation to the 9th day. On the 21st or 22nd day after the implantation, tumor weight was estimated from tumor diameters, and thus, the tumor growth inhibition rate (IR %) of the drug administered group in comparison with the control group was calculated according to the following equation. IR (%)=[1-{(MTW in the treated group)/(MTW in the control group)}]×10 0 MTW: mean tumor weight

For experiment [9], the system named is A427 human lung cancer. The experiment in a line: In vitro anti-tumor activity against A-427 human lung cancer (MTT). In kind it is cell-based. The conditions noted are these: A-427, 72 h, MTT, read-out: IC50. The method, then:
as §1

Experiment [10] relates to murine P388 lymphocytic leukemia cells. The experiment in a line: In vitro anti-tumor activity against murine P388 lymphocytic leukemia cells (MTT, 72 h). It is filed as cell-based. The settings on record: Mus musculus; murine P388 cells, 72 h, MTT; read-out: IC50 (50% proliferation inhibitory concentration). The method, then:
Test compounds were tested for anti-tumor activity according to MTT [3-(4,5-dimethylthiazol-2-yl)-2,5-diphenyltetrazolium bromide] method, using murine P388 lymphocytic leukemia cells. […] The culture medium was centrifuged (4° C., 2,000 rpm for 20 minutes), and thus, the supernatants were removed by suction. Then, 0.1 ml of dimethyl sulfoxide was put in each well to dissolve the formed formazan, and, subsequently, another 0.1 ml of dimethyl sulfoxide was added. The absorbance (OD) of each of the obtained solutions was measured by use of Multiskan Bichromatic (main wavelength 570 nm, sub-wavelength 690 nm). […] IC50 :μg/ml) were calculated by the least squares method.

The mark [11] stands for this setting: NCI criterion, 3.13 mg/kg, read-out: Evaluation.
Setting [12] is: NCI criterion, 12.5 mg/kg, read-out: Evaluation.
[13] abbreviates: NCI criterion, read-out: Evaluation.
Setting [14] is: 3.13 mg/kg, days 1 and 5, in suspension, read-out: ILS (%) (in suspension).
[15] abbreviates: 12.5 mg/kg, days 1 and 5, in suspension, read-out: ILS (%) (in suspension).
Setting [16] is: days 1 and 5, in suspension, read-out: ILS (%) (in suspension).
Where [17] appears, read: days 1 and 5, in solution, read-out: ILS (%) (in solution).

SMILES strings stand for the structures. Values after ≈ are worked out from the molar mass of the structure shown. Read-outs that look alike come from different tables or passages of the source.

Regarding `CN[C@@H]1CN(c2ccc3c(=O)c(C(=O)O)cn(-c4nc(F)cs4)c3n2)C[C@H]1OC` (relative stereo) [Compound 16], the IC50 was 0.148 µg/mL (≈ 0.353 µM) in experiment [1]; 0.132 µg/mL (≈ 0.315 µM) in [2]; 0.181 µg/mL (≈ 0.432 µM) in [3]; 0.126 µg/mL (≈ 0.3 µM) in experiment [4]; 0.0798 µg/mL (≈ 0.19 µM) in experiment [5]; 0.322 µg/mL (≈ 0.768 µM) in experiment [6]. Besides, the IC50 in [9] worked out at 0.145 µg/mL (≈ 0.346 µM); in experiment [10], 0.0344 µg/mL (≈ 0.082 µM). For the same compound, the results for the ILS at 3.13 mg/kg in experiment [7] (setting [11]) and in [7] (setting [14]) were 20 to 74% and 38%, respectively. The ILS at 12.5 mg/kg in experiment [7] (setting [12]) was over 75%; in experiment [7] (setting [15]), 138%. The ILS at 50 mg/kg in [7] (setting [13]) is over 75%; in experiment [7] (setting [16]), 238%. The inhibition in vivo at 3.13 mg/kg in [8] (3.13 mg/kg once a day) came out at 77%.

Regarding `CN[C@@H]1CN(c2ccc3c(=O)c(C(=O)O)cn(-c4nccs4)c3n2)C[C@H]1OC.Cl` (single isomer, unassigned) [Compound 1-3, (-)-1,4-Dihydro-7-(trans-3-methoxy-4-methylamino-1-pyrrolidinyl)-4-oxo-1-(2-thiazolyl)-1,8-naphthyridine-3-carboxylic acid hydrochloride], the IC50 in experiment [1] was 0.222 µg/mL; in experiment [2], 0.148 µg/mL; in experiment [3] it was 0.234 µg/mL; in [4] it was 0.208 µg/mL; in experiment [5], 0.11 µg/mL; in [6], 0.503 µg/mL. Also, the values for the IC50 in [9] and in experiment [10] were 0.107 µg/mL and 0.02 µg/mL, respectively. Moreover, the ILS at 50 mg/kg in [7] (setting [13]) is over 75%; in [7] (setting [17]) it was over 275%; in [7] (setting [16]), 200%. In addition, the Evaluation result in experiment [7] (NCI criterion, 3.13 mg/kg) is listed as “+ (20 to 74%: + (effective))”; in experiment [7] (NCI criterion, 6.25 mg/kg) it was “++ (ILS=75% or higher: ++ (remarkably effective))”; in experiment [7] (NCI criterion, 12.5 mg/kg) it was “++ (ILS=75% or higher: ++ (remarkably effective))”; in experiment [7] (NCI criterion, 25 mg/kg), “++ (ILS=75% or higher: ++ (remarkably effective))”. The “ILS (%) (in solution)” value is listed as 63% in [7] (3.13 mg/kg, days 1 and 5, in solution); 88% in experiment [7] (6.25 mg/kg, days 1 and 5, in solution); 138% in [7] (12.5 mg/kg, days 1 and 5, in solution); 200% in [7] (25 mg/kg, days 1 and 5, in solution). The “ILS (%) (in suspension)” value in [7] (3.13 mg/kg, days 1 and 5, in suspension) was 63%; in [7] (12.5 mg/kg, days 1 and 5, in suspension) it was 125%. For the same compound, the inhibition in vivo at 1.56 mg/kg in [8] turned out to be 50%. Also, the inhibition in vivo at 2.21 mg/kg in experiment [8] (2.21 mg/kg once a day) is 75%.

In the case of `CNC1CCN(c2ccc3c(=O)c(C(=O)O)cn(-c4nccs4)c3n2)C1` (centres unmarked) [Compound 6], the IC50 in [1] amounted to 0.16 µg/mL (≈ 0.431 µM); in [2] it was 0.156 µg/mL (≈ 0.42 µM); in [3], 0.122 µg/mL (≈ 0.328 µM); in experiment [4], 0.0987 µg/mL (≈ 0.266 µM); in [5], 0.0622 µg/mL (≈ 0.167 µM); in experiment [6] it was 0.381 µg/mL (≈ 1.03 µM). In addition, the IC50 in [9] was determined as 0.0832 µg/mL (≈ 0.224 µM); in experiment [10] it was 0.0105 µg/mL (≈ 0.0283 µM). In addition, the ILS at 1.56 mg/kg is 20 to 74% in [7] (setting [13]) and 63% in experiment [7] (setting [17]). Also, the ILS at 3.13 mg/kg in [7] (setting [11]) is over 75%; in experiment [7] (3.13 mg/kg, days 1 and 5, in solution, read-out: ILS (%) (in solution)), 100%; in experiment [7] (setting [14]), 100%. In addition, the ILS at 6.25 mg/kg in [7] (NCI criterion, 6.25 mg/kg, read-out: Evaluation) was over 75%; in [7] (6.25 mg/kg, days 1 and 5, in solution, read-out: ILS (%) (in solution)) it was 138%. The ILS at 12.5 mg/kg in [7] (setting [12]) was over 75%; in experiment [7] (12.5 mg/kg, days 1 and 5, in solution, read-out: ILS (%) (in solution)), 150%; in experiment [7] (setting [15]) it was 200%. The ILS at 25 mg/kg is over 75% in [7] (NCI criterion, 25 mg/kg, read-out: Evaluation); 225% in [7] (25 mg/kg, days 1 and 5, in solution, read-out: ILS (%) (in solution)). Also, the ILS at 50 mg/kg in experiment [7] (setting [13]) is over 75%; in experiment [7] (setting [16]) it was over 275%. Besides, the inhibition in vivo at 1.56 mg/kg in experiment [8] was 71%.

For `Cl.NC1CCN(c2ccc3c(=O)c(C(=O)O)cn(-c4nc(F)cs4)c3n2)C1` (centres unmarked) [Compound 8, 7-(3-Amino-1-pyrrolidinyl)-1-(4-fluoro-2-thiazolyl)-1,4-dihydro-4-oxo-1,8-naphthyridine-3-carboxylic acid hydrochloride], the IC50 turned out to be 0.143 µg/mL in [1]; 0.0712 µg/mL in experiment [2]; 0.0578 µg/mL in experiment [3]; 0.0494 µg/mL in experiment [4]; 0.0285 µg/mL in experiment [5]; 0.323 µg/mL in experiment [6]. For the same compound, the IC50 was 0.0625 µg/mL in experiment [9] and 0.00413 µg/mL in experiment [10]. The ILS at 0.78 mg/kg in [7] (setting [13]) was over 75%; in experiment [7] (setting [16]) it was 75%. Moreover, the ILS at 3.13 mg/kg was over 75% in [7] (setting [11]) and 175% in experiment [7] (setting [14]). For the same compound, the ILS at 12.5 mg/kg was over 75% in [7] (setting [12]) and over 275% in [7] (setting [15]). Besides, the inhibition in vivo at 0.39 mg/kg in experiment [8] (0.39 mg/kg once a day) came out at 57%. For the same compound, the inhibition in vivo at 1.56 mg/kg in experiment [8] turned out to be 91%.
